# Several values for one entry are separate records, joined by “and”; a condition that tells them apart may be missing. Equal entries are not always repeated.
# Experiments:
# HeLa cells = details: 100 μM
# [1] = system: 45 receptors and channels; details: 10 μM; radioligand binding and functional assays
# [2] = pH 7.4
# [3] = MLM incubation
# in vitro = details: PAMPA, pH 7.4
# [4] = system: Plk1 localization to centrosomes and kinetochores; test: Plk1 localization and spindle morphology by immunostaining in HeLa cells; format: cell-based; details: 100 μM, 12 h
# [5] = mice, 20 mg/kg, IP, whole period of the experiment
SMILES,ability to induce mitotic arrest and an antiproliferation effect (HeLa cells),PAMPA [2],other results
"CCCn1c(=O)c2ccccc2n2c(S)nnc12 [Compound 21, 4-Propyl-1-thioxo-2,4-dihydro-[1,2,4]triazolo[4,3-a]quinazolin-5(1H)-one]",lacked a detectable level of cellular response,37.0 ×10⁻⁶ cm/s and 37 ×10⁻⁶ cm/s,potential off-target interactions [1]: not detected
"CCCCn1c(=O)c2ccccc2n2c(S)nnc12 [Compound 23, 4-Butyl-1-thioxo-2,4-dihydro-[1,2,4]triazolo[4,3-a]quinazolin-5(1H)-one]",–,77.5 ×10⁻⁶ cm/s,major metabolite (LC–MS/MS) [3]: glucuronidation is the major metabolite
"CCCn1c(=O)c2ccccc2n2c(=S)n(CN(C)C3CC3)nc12 [Compound 35, 2-((Cyclopropyl(methyl)amino)methyl)-4-propyl-1-thioxo-2,4-di-hydro-[1,2,4]triazolo[4,3-a]quinazolin-5(1H)-one]",–,–,Solub. (μg/ml) (Aqueous solubility): Insol.
"CCCn1c(=O)c2cc(F)ccc2n2c(=S)[nH]nc12 [Compound 64, 7-Fluoro-4-propyl-1-thioxo-2,4-dihydro-[1,2,4]triazolo[4,3-a]-quinazolin-5(1H)-one]",lacked a detectable level of cellular response,195 ×10⁻⁶ cm/s,–
"CN(C)CCn1c(=O)c2cc(F)ccc2n2c(=S)[nH]nc12 [Compound 70, 4-(2-(Dimethylamino)ethyl)-7-fluoro-1-thioxo-2,4-dihydro-[1,2,4]triazolo[4,3-a]quinazolin-5(1H)-one]",–,–,Papp (in vitro): 177 ×10⁻⁶ cm/s
"O=C(Cc1ccc(Br)cc1)NCCCn1c(=O)c2cc(F)ccc2n2c(=S)[nH]nc12 [Compound 125, 2-(4-Bromophenyl)-N-(3-(7-fluoro-5-oxo-1-thioxo-1,2-dihydro-[1,2,4]triazolo[4,3-a]quinazolin-4(5H)-yl)propyl)acetamide]",–,767 ×10⁻⁶ cm/s,–
"Cc1ccc(CC(=O)NCCCn2c(=O)c3cc(F)ccc3n3c(=S)[nH]nc23)cc1 [Compound 126, N-(3-(7-Fluoro-5-oxo-1-thioxo-1,2-dihydro-[1,2,4]triazolo[4,3-a]-quinazolin-4(5H)-yl)propyl)-2-(p-tolyl)acetamide]",–,621 ×10⁻⁶ cm/s,–
"COc1ccccc1CC(=O)NCCCn1c(=O)c2cc(F)ccc2n2c(=S)[nH]nc12 [Compound 128, N-(3-(7-Fluoro-5-oxo-1-thioxo-1,2-dihydro-[1,2,4]triazolo[4,3-a]-quinazolin-4(5H)-yl)propyl)-2-(2-methoxyphenyl)acetamide]",–,379 ×10⁻⁶ cm/s,–
"COc1cccc(CC(=O)NCCCn2c(=O)c3cc(F)ccc3n3c(=S)[nH]nc23)c1 [Compound 129, N-(3-(7-Fluoro-5-oxo-1-thioxo-1,2-dihydro-[1,2,4]triazolo[4,3-a]-quinazolin-4(5H)-yl)propyl)-2-(3-methoxyphenyl)acetamide]",–,–,Papp (in vitro): 311 ×10⁻⁶ cm/s
"COc1ccc(CC(=O)NCCCn2c(=O)c3cc(F)ccc3n3c(=S)[nH]nc23)cc1 [Compound 130, N-(3-(7-Fluoro-5-oxo-1-thioxo-1,2-dihydro-[1,2,4]triazolo[4,3-a]-quinazolin-4(5H)-yl)propyl)-2-(4-methoxyphenyl)acetamide]",–,233 ×10⁻⁶ cm/s,–
"O=C(Cc1ccccc1C(F)(F)F)NCCCn1c(=O)c2cc(F)ccc2n2c(=S)[nH]nc12 [Compound 131, N-(3-(7-Fluoro-5-oxo-1-thioxo-1,2-dihydro-[1,2,4]triazolo[4,3-a]-quinazolin-4(5H)-yl)propyl)-2-(2-(trifluoromethyl)phenyl)-acetamide]",–,825 ×10⁻⁶ cm/s,–
"N#Cc1ccccc1CC(=O)NCCCn1c(=O)c2cc(F)ccc2n2c(=S)[nH]nc12 [Compound 133, 2-(2-Cyanophenyl)-N-(3-(7-fluoro-5-oxo-1-thioxo-1,2-dihydro-[1,2,4]triazolo[4,3-a]quinazolin-4(5H)-yl)propyl)acetamide]",–,156 ×10⁻⁶ cm/s,–
"CC(C)(C)OC(=O)Nc1ccc(CC(=O)NCCCn2c(=O)c3cc(F)ccc3n3c(=S)[nH]nc23)cc1 [Compound 135, tert-Butyl (4-(2-((3-(7-Fluoro-5-oxo-1-thioxo-1,2-dihydro-[1,2,4]-triazolo[4,3-a]quinazolin-4(5H)-yl)propyl)amino)-2-oxoethyl)-phenyl)carbamate]",–,910 ×10⁻⁶ cm/s,–
"O=C(Cc1ccccn1)NCCCn1c(=O)c2cc(F)ccc2n2c(=S)[nH]nc12 [Compound 136, N-(3-(7-Fluoro-5-oxo-1-thioxo-1,2-dihydro-[1,2,4]triazolo[4,3-a]-quinazolin-4(5H)-yl)propyl)-2-(pyridine-2-yl)acetamide]",–,68.0 ×10⁻⁶ cm/s,–
"O=C(Cc1cccnc1)NCCCn1c(=O)c2cc(F)ccc2n2c(=S)[nH]nc12 [Compound 137, N-(3-(7-Fluoro-5-oxo-1-thioxo-1,2-dihydro-[1,2,4]triazolo[4,3-a]-quinazolin-4(5H)-yl)propyl)-2-(pyridine-3-yl)acetamide]",–,21.0 ×10⁻⁶ cm/s,–
"O=C(Cc1ccncc1)NCCCn1c(=O)c2cc(F)ccc2n2c(=S)[nH]nc12 [Compound 138, N-(3-(7-Fluoro-5-oxo-1-thioxo-1,2-dihydro-[1,2,4]triazolo[4,3-a]-quinazolin-4(5H)-yl)propyl)-2-(pyridine-4-yl)acetamide]",–,<1 ×10⁻⁶ cm/s,–
"CCCn1c(=O)c2cccc(F)c2n2c(=S)[nH]nc12 [Compound 139, 9-Fluoro-4-propyl-1-thioxo-2,4-dihydro-[1,2,4]triazolo[4,3-a]-quinazolin-5(1H)-one]",lacked a detectable level of cellular response,–,–
"CCCn1c(=O)c2ccccc2n2c(SC)nnc12 [Compound 143, 1-(Methylthio)-4-propyl-[1,2,4]triazolo[4,3-a]quinazolin-5(4H)-one]",effectively induced rounded cells with apoptotic or aberrant chromosome morphologies,–,spindle bipolarity [4]: significantly compromised; signs of toxicity [5]: no signs of toxicity
"CCCn1c(=O)c2cc(F)ccc2n2c(SC)nnc12 [Compound 144, 7-Fluoro-1-(methylthio)-4-propyl-[1,2,4]triazolo[4,3-a]-quinazolin-5(4H)-one]",induced mitotic arrest but at a somewhat reduced level,–,–
"CCCn1c(=O)c2cccc(F)c2n2c(SC)nnc12 [Compound 145, 9-Fluoro-1-(methylthio)-4-propyl-[1,2,4]triazolo[4,3-a]-quinazolin-5(4H)-one]",effectively induced rounded cells with apoptotic or aberrant chromosome morphologies,–,–
